Measured values from patent publication US6613718B2, “Aryl ether derivatives and processes for their preparation and herbicidal and desiccant compositions containing them” (Ishihara Sangyo Kaisha, Ltd., priority 2001, dated 2003).

Columns and labels:
Assay type in all cases: in vivo
Settings in all cases: 14 days after application
[1] = tested on: sicklepod (Cassia obtusifolia, CASOB); experiment: Pre-emerge greenhouse herbicide activity screening, phytotoxicity rating
How it was run: (§1)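 Ratings taken 14 days after treatment on a 0–100 scale, 100 meaning complete plant death. Post-emerge: 2-3 leaf plants, 0.25% v/v surfactant added; pre-emerge: seeds sown a day ahead, soil surface-watered after spraying. Rates 15–1000 g ai/ha in acetone, 187 l/ha.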

[2] = tested on: barnyardgrass (Echinochloa crus-galli, ECHCG); experiment: as above
How it was run: as §1

[3] = tested on: common ragweed (Ambrosia artemisiifolia L., AMBEL); experiment: as above
How it was run: as §1

[4] = tested on: johnsongrass (Sorghum halepense, SORHA); experiment: as above
How it was run: as §1

[5] = tested on: green foxtail (Setaria viridis, SETVI); experiment: as above
How it was run: as §1

[6] = tested on: velvetleaf (Abutilon theophrasti, ABUTH); experiment: as above
How it was run: as §1

[7] = tested on: ivyleaf morningglory (Ipomoea hederacea, IPOHE); experiment: as above
How it was run: as §1

[8] = tested on: large crabgrass (Digitaria sanguinalis, DIGSA); experiment: as above
How it was run: as §1

[9] = tested on: lambsquarters (Chenopodium album, CHEAL); experiment: as above
How it was run: as §1

[10] = tested on: redroot pigweed (Amaranthus retroflexus, AMARE); experiment: as above
How it was run: as §1

[11] = tested on: field corn (Zea mays L., var. Dekalb 535, CORN); experiment: Pre-emerge greenhouse screening, crop safety (phytotoxicity rating)
How it was run: as §1

[12] = tested on: upland rice (Oryza sp., var.Tebonnet, RICE); experiment: as above
How it was run: as §1

[13] = tested on: soybean (Glycine max L., var. Pella 86, SOY); experiment: as above
How it was run: as §1

[14] = tested on: upland rice (Oryza sp., var.Tebonnet, RICE); experiment: Post-emerge greenhouse screening, crop safety (phytotoxicity rating)
How it was run: as §1

[15] = tested on: soybean (Glycine max L., var. Pella 86, SOY); experiment: as above
How it was run: as §1

[16] = tested on: field corn (Zea mays L., var. Dekalb 535, CORN); experiment: Post-emerge greenhouse screening, crop safety / corn selectivity (phytotoxicity rating)
How it was run: as §1

[17] = tested on: sicklepod (Cassia obtusifolia, CASOB); experiment: Post-emerge greenhouse herbicide activity screening, phytotoxicity rating
How it was run: as §1

[18] = tested on: barnyardgrass (Echinochloa crus-galli, ECHCG); experiment: as above
How it was run: as §1

[19] = tested on: common ragweed (Ambrosia artemisiifolia L., AMBEL); experiment: as above
How it was run: as §1

[20] = tested on: johnsongrass (Sorghum halepense, SORHA); experiment: as above
How it was run: as §1

[21] = tested on: green foxtail (Setaria viridis, SETVI); experiment: as above
How it was run: as §1

[22] = tested on: velvetleaf (Abutilon theophrasti, ABUTH); experiment: as above
How it was run: as §1

[23] = tested on: ivyleaf morningglory (Ipomoea hederacea, IPOHE); experiment: as above
How it was run: as §1

[24] = tested on: large crabgrass (Digitaria sanguinalis, DIGSA); experiment: as above
How it was run: as §1

[25] = tested on: lambsquarters (Chenopodium album, CHEAL); experiment: as above
How it was run: as §1

[26] = tested on: redroot pigweed (Amaranthus retroflexus, AMARE); experiment: as above
How it was run: as §1

## Cn1c(=S)n(C)c(=O)n(-c2cc(Oc3ccccc3N)c(Cl)cc2F)c1=O [Compound 2-18]
[1]; 125 g ai/ha
  CASOB phytotoxicity rating (0-100 scale): 20
[1]; 250 g ai/ha
  CASOB phytotoxicity rating (0-100 scale): 35
[2]; 125 g ai/ha
  ECHCG phytotoxicity rating (0-100 scale): 35
[2]; 250 g ai/ha
  ECHCG phytotoxicity rating (0-100 scale): 60
[3]; 125 g ai/ha
  AMBEL phytotoxicity rating (0-100 scale): 50
[3]; 250 g ai/ha
  AMBEL phytotoxicity rating (0-100 scale): 55
[4]; 125 g ai/ha
  SORHA phytotoxicity rating (0-100 scale): 35
[4]; 250 g ai/ha
  SORHA phytotoxicity rating (0-100 scale): 75
[5]; 125 g ai/ha
  SETVI phytotoxicity rating (0-100 scale): 60
[5]; 250 g ai/ha
  SETVI phytotoxicity rating (0-100 scale): 95
[6]; 125 g ai/ha
  ABUTH phytotoxicity rating (0-100 scale): 55
[6]; 250 g ai/ha
  ABUTH phytotoxicity rating (0-100 scale): 60
[7]; 125 g ai/ha
  IPOHE phytotoxicity rating (0-100 scale): 0
[7]; 250 g ai/ha
  IPOHE phytotoxicity rating (0-100 scale): 10
[8]; 125 g ai/ha
  DIGSA phytotoxicity rating (0-100 scale): 75
[8]; 250 g ai/ha
  DIGSA phytotoxicity rating (0-100 scale): 80
[9]; 125 g ai/ha
  CHEAL phytotoxicity rating (0-100 scale): 100
[9]; 250 g ai/ha
  CHEAL phytotoxicity rating (0-100 scale): 100
[10]; 125 g ai/ha
  AMARE phytotoxicity rating (0-100 scale): 99
[10]; 250 g ai/ha
  AMARE phytotoxicity rating (0-100 scale): 100
[11]; 125 g ai/ha
  CORN crop damage, phytotoxicity rating (0-100 scale): 0
[11]; 250 g ai/ha
  CORN crop damage, phytotoxicity rating (0-100 scale): 5
[12]; 125 g ai/ha
  RICE crop damage, phytotoxicity rating (0-100 scale): 0
[12]; 250 g ai/ha
  RICE crop damage, phytotoxicity rating (0-100 scale): 0
[13]; 125 g ai/ha
  SOY crop damage, phytotoxicity rating (0-100 scale): 0
[13]; 250 g ai/ha
  SOY crop damage, phytotoxicity rating (0-100 scale): 0
[14]; 125 g ai/ha
  RICE crop damage, phytotoxicity rating (0-100 scale): 0
[14]; 250 g ai/ha
  RICE crop damage, phytotoxicity rating (0-100 scale): 0
[15]; 125 g ai/ha
  SOY crop damage, phytotoxicity rating (0-100 scale): 0
[15]; 250 g ai/ha
  SOY crop damage, phytotoxicity rating (0-100 scale): 0
[16]; 125 g ai/ha
  CORN crop damage, phytotoxicity rating (0-100 scale): 0
[16]; 250 g ai/ha
  CORN crop damage, phytotoxicity rating (0-100 scale): 0
[17]; 125 g ai/ha
  CASOB phytotoxicity rating (0-100 scale): 0
[17]; 250 g ai/ha
  CASOB phytotoxicity rating (0-100 scale): 0
[18]; 125 g ai/ha
  ECHCG phytotoxicity rating (0-100 scale): 0
[18]; 250 g ai/ha
  ECHCG phytotoxicity rating (0-100 scale): 35
[19]; 125 g ai/ha
  AMBEL phytotoxicity rating (0-100 scale): 0
[19]; 250 g ai/ha
  AMBEL phytotoxicity rating (0-100 scale): 0
[20]; 125 g ai/ha
  SORHA phytotoxicity rating (0-100 scale): 0
[20]; 250 g ai/ha
  SORHA phytotoxicity rating (0-100 scale): 0
[21]; 125 g ai/ha
  SETVI phytotoxicity rating (0-100 scale): 50
[21]; 250 g ai/ha
  SETVI phytotoxicity rating (0-100 scale): 50
[22]; 125 g ai/ha
  ABUTH phytotoxicity rating (0-100 scale): 0
[22]; 250 g ai/ha
  ABUTH phytotoxicity rating (0-100 scale): 40
[23]; 125 g ai/ha
  IPOHE phytotoxicity rating (0-100 scale): 0
[23]; 250 g ai/ha
  IPOHE phytotoxicity rating (0-100 scale): 0
[24]; 125 g ai/ha
  DIGSA phytotoxicity rating (0-100 scale): 0
[24]; 250 g ai/ha
  DIGSA phytotoxicity rating (0-100 scale): 0
[25]; 125 g ai/ha
  CHEAL phytotoxicity rating (0-100 scale): 70
[25]; 250 g ai/ha
  CHEAL phytotoxicity rating (0-100 scale): 70
[26]; 125 g ai/ha
  AMARE phytotoxicity rating (0-100 scale): 80
[26]; 250 g ai/ha
  AMARE phytotoxicity rating (0-100 scale): 80
